Results as given in patent US8871753B2, “Macrocyclic compounds and their use as kinase inhibitors” (Incyte Corporation, priority 2008, dated 2014).
Where a name gives a salt, the structure may show the parent alone. Read-outs that look alike come from different tables or passages of the source.

Experiments:
Type in all cases: biochemical
TYK2 = TYK2 (Homo sapiens, UniProt P29597); experiment: TYK2 kinase inhibition (Table A1)
[1] = target: T1, human JAK2 (a.a. 828-1132) (Homo sapiens, UniProt O60674); experiment: In vitro JAK kinase assay (HTRF, phosphorylation of a biotinylated peptide), JAK2
T1 construct: JAK2 (a.a. 828-1132); His tag (N); made in house; host or cells: insect cells (baculovirus)
T1 sequence (O60674 828-1132): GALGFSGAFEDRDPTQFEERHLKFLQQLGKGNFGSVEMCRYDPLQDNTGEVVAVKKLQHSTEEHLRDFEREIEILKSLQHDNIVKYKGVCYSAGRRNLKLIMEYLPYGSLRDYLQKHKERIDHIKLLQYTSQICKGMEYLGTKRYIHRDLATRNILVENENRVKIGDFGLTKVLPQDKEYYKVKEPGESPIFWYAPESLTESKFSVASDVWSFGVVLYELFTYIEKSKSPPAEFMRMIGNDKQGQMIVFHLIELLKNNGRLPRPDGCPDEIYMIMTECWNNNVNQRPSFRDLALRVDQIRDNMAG
Method in brief: (§1)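 Kinase activity was measured as phosphorylation of a biotinylated peptide, with ATP at 90 μM for JAK1, 30 μM for JAK2 and 3 μM for JAK3. Reactions ran 1 hr at room temperature, were stopped with EDTA plus SA-APC and Eu-Py20, and were read by HTRF after 40 minutes of antibody binding.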

[2] = target: T2, human JAK3 (a.a. 781-1124) (Homo sapiens, UniProt P52333); experiment: In vitro JAK kinase assay (HTRF, phosphorylation of a biotinylated peptide), JAK3
T2 construct: JAK3 (a.a. 781-1124); His tag (N); made in house; host or cells: insect cells (baculovirus)
T2 sequence (P52333 781-1124): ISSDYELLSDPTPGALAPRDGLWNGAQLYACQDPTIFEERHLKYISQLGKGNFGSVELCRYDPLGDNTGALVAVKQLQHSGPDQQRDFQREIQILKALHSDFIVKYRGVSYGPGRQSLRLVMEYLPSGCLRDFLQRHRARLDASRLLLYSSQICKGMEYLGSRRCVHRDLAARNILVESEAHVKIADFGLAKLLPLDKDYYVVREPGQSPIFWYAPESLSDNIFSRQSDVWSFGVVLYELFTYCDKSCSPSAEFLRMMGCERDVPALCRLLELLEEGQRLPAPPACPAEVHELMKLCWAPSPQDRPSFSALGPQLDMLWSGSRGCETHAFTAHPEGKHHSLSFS
Method in brief: as §1

[3] = target: T3, human JAK1 (a.a. 837-1142) (Homo sapiens, UniProt P23458); experiment: In vitro JAK kinase assay (HTRF, phosphorylation of a biotinylated peptide), JAK1; settings: read-out: JAK1 IC50
T3 construct: human JAK1 (a.a. 837-1142); His tag (N); made in house; host or cells: insect cells (baculovirus)
T3 sequence (P23458 849-1154): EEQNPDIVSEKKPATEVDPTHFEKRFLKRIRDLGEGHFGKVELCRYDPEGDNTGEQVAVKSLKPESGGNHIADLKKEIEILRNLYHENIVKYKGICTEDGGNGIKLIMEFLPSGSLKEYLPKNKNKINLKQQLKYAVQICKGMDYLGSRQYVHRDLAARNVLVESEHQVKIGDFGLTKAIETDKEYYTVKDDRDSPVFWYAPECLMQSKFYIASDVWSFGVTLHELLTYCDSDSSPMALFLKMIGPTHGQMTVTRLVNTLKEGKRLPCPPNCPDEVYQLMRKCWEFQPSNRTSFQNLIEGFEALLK
Method in brief: as §1

TYK2, sequence (P29597 whole entry): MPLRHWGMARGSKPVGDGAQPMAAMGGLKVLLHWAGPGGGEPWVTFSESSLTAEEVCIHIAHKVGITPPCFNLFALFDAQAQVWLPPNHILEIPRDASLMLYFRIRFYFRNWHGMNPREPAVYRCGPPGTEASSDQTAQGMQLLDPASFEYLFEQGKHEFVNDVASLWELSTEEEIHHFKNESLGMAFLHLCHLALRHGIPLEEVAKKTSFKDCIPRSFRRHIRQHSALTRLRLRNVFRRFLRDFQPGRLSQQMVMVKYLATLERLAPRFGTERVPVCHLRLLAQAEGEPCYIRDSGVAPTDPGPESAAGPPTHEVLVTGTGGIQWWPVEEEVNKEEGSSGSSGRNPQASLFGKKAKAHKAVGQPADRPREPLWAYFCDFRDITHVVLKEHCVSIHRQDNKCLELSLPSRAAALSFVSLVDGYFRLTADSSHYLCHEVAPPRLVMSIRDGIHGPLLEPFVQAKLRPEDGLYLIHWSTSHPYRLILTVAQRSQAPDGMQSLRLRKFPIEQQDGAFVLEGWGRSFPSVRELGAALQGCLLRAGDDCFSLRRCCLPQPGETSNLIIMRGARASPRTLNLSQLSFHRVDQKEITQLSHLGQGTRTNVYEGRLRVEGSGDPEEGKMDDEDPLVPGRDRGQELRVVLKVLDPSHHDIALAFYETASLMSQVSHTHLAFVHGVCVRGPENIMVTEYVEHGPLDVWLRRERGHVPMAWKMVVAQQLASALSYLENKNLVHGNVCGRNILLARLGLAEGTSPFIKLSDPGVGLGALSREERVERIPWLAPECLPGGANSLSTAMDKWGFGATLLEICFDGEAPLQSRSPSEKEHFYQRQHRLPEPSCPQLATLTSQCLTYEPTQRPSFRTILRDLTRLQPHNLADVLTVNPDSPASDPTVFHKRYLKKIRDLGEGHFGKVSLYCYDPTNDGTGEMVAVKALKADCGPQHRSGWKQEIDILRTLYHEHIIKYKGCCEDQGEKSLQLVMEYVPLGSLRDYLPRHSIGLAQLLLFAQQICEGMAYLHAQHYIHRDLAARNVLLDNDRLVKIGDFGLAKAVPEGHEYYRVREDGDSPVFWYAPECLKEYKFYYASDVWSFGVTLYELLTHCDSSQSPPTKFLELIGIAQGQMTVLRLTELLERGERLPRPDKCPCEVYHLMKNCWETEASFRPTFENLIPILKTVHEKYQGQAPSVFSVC

Row | Compound | IC50 (TYK2; Table D1) [nM] | IC50 ([1]; Table D1) [nM] | IC50 ([2]; Table D1) [nM] | IC50 ([3]; Table D1) [nM] | further results
1 | O=C(COc1ccc2cc1CCc1cncc(c1)Nc1ncc(Cl)c(n1)N2)N1CCN(c2cc(Cl)ccn2)CC1 [Example D244, 6-Chloro-12-{2-[4-(4-chloropyridin-2-yl)piperazin-1-yl]-2-oxoethoxy}-2,4,8,18,22-pentaazatetracyclo[14.3.1.1(3,7).1(9,13)]docosa-1(20),3(22),4,6,9(21),10,12,16,18-nonaene tris(trifluoroacetate)] | > 400 | 358 | > 400 | 80 | –
2 | O=C(Nc1ccc2cc1CCc1cccc(c1)Nc1ncc(Cl)c(n1)N2)N1CCCC1 [Example B81, N-[6-Chloro-2,4,8,22-tetraazatetracyclo[14.3.1.1(3,7).1(9,13)]docosa-1(20), 3(22),4,6,9(21),10,12,16,18-nonaen-12-yl]pyrrolidine-1-carboxamide trifluoroacetate] | – | – | – | – | IC50 (TYK2; Table B1): 221 nM; IC50 ([1]; Table B1): 123 nM; IC50 ([2]; Table B1): 475 nM; IC50 ([3]; Table B1): 109 nM
3 | O=C(Cc1noc2ccccc12)Nc1ccc2cc1CCc1cccc(c1)Nc1ncc(Cl)c(n1)N2 [Example C45, 2-(1,2-Benzisoxazol-3-yl)-N-[6-chloro-2,4,8,22-tetraazatetracyclo[14.3.1.1(3,7).1(9,13)]docosa-1(20),3(22),4,6,9(21),10,12,16,18-nonaen-12-yl]acetamide trifluoroacetate] | – | – | – | – | IC50 (TYK2): 544 nM; IC50 [1]: 321 nM; IC50 [2]: > 10000 nM; IC50 [3]: 165 nM
4 | Cc1nc(C)c(CC(=O)Nc2ccc3cc2CCc2cccc(c2)Nc2ncc(Cl)c(n2)N3)s1 [Example C43, N-[6-Chloro-2,4,8,22-tetraazatetracyclo[14.3.1.1(3,7).1(9,13)]docosa-1(20),3(22),4,6,9(21),10,12,16,18-nonaen-12-yl]-2-(2,4-dimethyl-1,3-thiazol-5-yl)acetamide trifluoroacetate] | – | – | – | – | IC50 (TYK2): 88 nM; IC50 [1]: 31 nM; IC50 [2]: 1140 nM; IC50 [3]: 22 nM
5 | Clc1cnc2nc1Nc1ccc(OCC3CCNCC3)c(c1)CCc1cncc(c1)N2 [Example D225, 6-Chloro-12-(piperidin-4-ylmethoxy)-2,4,8,18,22-pentaazatetracyclo[14.3.1.1(3,7).1(9,13)]docosa-1(20),3(22),4,6,9(21),10,12,16,18-nonaene tris(trifluoroacetate)] | > 400 | > 400 | > 400 | 180 | –
6 | O=C(COc1ccc2cc1CCc1cncc(c1)Nc1ncc(Cl)c(n1)N2)N1CCN(c2nccc3occc23)CC1 [Example D245, 6-Chloro-12-[2-(4-furo[3,2-c]pyridin-4-ylpiperazin-1-yl)-2-oxoethoxy]-2,4,8,18,22-pentaazatetracyclo[14.3.1.1(3,7).1(9,13)]docosa-1(20),3(22),4,6,9(21),10,12,16,18-nonaene tris(trifluoroacetate)] | > 400 | > 400 | > 400 | 75 | –
7 | Cc1cc(C(=O)N2CCC(CCNc3ccc4cc3CCc3cncc(c3)Nc3ncc(Cl)c(n3)N4)CC2)no1 [Example D218, 6-Chloro-N-(2-{1-[(5-methylisoxazol-3-yl)carbonyl]piperidin-4-yl}ethyl)-2,4,8,18,22-pentaazatetracyclo[14.3.1.1(3,7).1(9,13)]docosa-1(20),3(22),4,6,9(21),10,12,16,18-nonaen-12-amine tris(trifluoroacetate)] | 46 | 64 | > 400 | 13 | –
8 | Cc1noc(C)c1NC(=O)N1CCC(CCOc2ccc3cc2CCc2cncc(c2)Nc2ncc(Cl)c(n2)N3)CC1 [Example D171, 4-(2-{[6-Chloro-2,4,8,18,22-pentaazatetracyclo[14.3.1.1(3,7).1(9,13)]docosa-1(20),3(22),4,6,9(21),10,12,16,18-nonaen-12-yl]oxy}ethyl)-N-(3,5-dimethylisoxazol-4-yl)piperidine-1-carboxamide bis(trifluoroacetate)] | > 400 | 244 | > 400 | 117 | –
9 | N#Cc1cccc(NC(=O)N2CCN(c3ccc4cc3CCc3cccc(c3)Nc3ncc(Cl)c(n3)N4)CC2)c1 [Example D89, 4-[6-Chloro-2,4,8,22-tetraazatetracyclo[14.3.1.1(3,7).1(9,13)]docosa-1(20),3(22),4,6,9(21),10,12,16,18-nonaen-12-yl]-N-(3-cyanophenyl)piperazine-1-carboxamide bis(trifluoroacetate)] | 53 | 6.7 | 77 | 66 | –
10 | O=C(COc1ccc2cc1CCc1cncc(c1)Nc1ncc(Cl)c(n1)N2)N1CCN(c2ccccc2)CC1 [Example D234, 6-Chloro-12-[2-oxo-2-(4-phenylpiperazin-1-yl)ethoxy]-2,4,8,18,22-pentaazatetracyclo[14.3.1.1(3,7).1(9,13)]docosa-1(20),3(22),4,6,9(21),10,12,16,18-nonaene tris(trifluoroacetate)] | > 400 | 160 | > 400 | 41 | –
11 | O=C(CC1CCN(c2nccs2)C1)Nc1ccc2cc1CCc1cncc(c1)Nc1ncc(Cl)c(n1)N2 (stereo not shown) [Example D154, N-[6-Chloro-2,4,8,18,22-pentaazatetracyclo[14.3.1.1(3,7).1(9,13)]docosa-1(20),3(22),4,6,9(21),10,12,16,18-nonaen-12-yl]-2-[1-(1,3-thiazol-2-yl)pyrrolidin-3-yl]acetamide tris(trifluoroacetate)] | 226 | 59 | > 400 | 7.8 | –
12 | CS(=O)(=O)N1CC(CC(=O)Nc2ccc3cc2CCc2cncc(c2)Nc2ncc(Cl)c(n2)N3)C1 [Example D146, N-[6-Chloro-2,4,8,18,22-pentaazatetracyclo[14.3.1.1(3,7).1(9,13)]docosa-1(20),3(22),4,6,9(21),10,12,16,18-nonaen-12-yl]-2-[1-(methylsulfonyl)azetidin-3-yl]acetamide bis(trifluoroacetate)] | 270 | 149 | > 1000 | 24 | –
13 | CC(C)(C)NC(=O)N1CCN(c2ccc3cc2CCc2cccc(c2)Nc2ncc(Cl)c(n2)N3)CC1 [Example D84, N-(tert-Butyl)-4-[6-chloro-2,4,8,22-tetraazatetracyclo[14.3.1.1(3,7).1(9,13)]docosa-1(20),3(22),4,6,9(21),10,12,16,18-nonaen-12-yl]piperazine-1-carboxamide bis(trifluoroacetate)] | 45 | 7.3 | 37 | 21 | –
14 | O=C(CC1CCN(c2ccncc2)C1)Nc1ccc2cc1CCc1cncc(c1)Nc1ncc(Cl)c(n1)N2 (stereo not shown) [Example D157, N-[6-Chloro-2,4,8,18,22-pentaazatetracyclo[14.3.1.1(3,7).1(9,13)]docosa-1(20),3(22),4,6,9(21),10,12,16,18-nonaen-12-yl]-2-(1-pyridin-4-ylpyrrolidin-3-yl)acetamide tris(trifluoroacetate)] | > 400 | > 400 | > 400 | 39 | –
15 | O=C(COc1ccc2cc1CCc1cncc(c1)Nc1ncc(Cl)c(n1)N2)N1CCN(c2cccc(Cl)n2)CC1 [Example D240, 6-Chloro-12-{2-[4-(6-chloropyridin-2-yl)piperazin-1-yl]-2-oxoethoxy}-2,4,8,18,22-pentaazatetracyclo[14.3.1.1(3,7).1(9,13)]docosa-1(20),3(22),4,6,9(21),10,12,16,18-nonaene tris(trifluoroacetate)] | > 400 | > 400 | > 400 | 255 | –
16 | O=C(Nc1cccs1)N1CCC(CCOc2ccc3cc2CCc2cncc(c2)Nc2ncc(Cl)c(n2)N3)CC1 [Example D167, 4-(2-{[6-Chloro-2,4,8,18,22-pentaazatetracyclo[14.3.1.1(3,7).1(9,13)]docosa-1(20),3(22),4,6,9(21),10,12,16,18-nonaen-12-yl]oxy}ethyl)-N-2-thienylpiperidine-1-carboxamide bis(trifluoroacetate)] | > 400 | 244 | > 400 | 57 | –
17 | O=C(Cc1coc2ccccc12)Nc1ccc2cc1CCc1cccc(c1)Nc1ncc(Cl)c(n1)N2 [Example C47, 2-(1-Benzofuran-3-yl)-N-[6-chloro-2,4,8,22-tetraazatetracyclo[14.3.1.1(3,7).1(9,13)]docosa-1(20),3(22),4,6,9(21),10,12,16,18-nonaen-12-yl]acetamide trifluoroacetate] | – | – | – | – | IC50 (TYK2): 300 nM; IC50 [1]: 134 nM; IC50 [2]: 1140 nM; IC50 [3]: 67 nM
18 | Cc1cc(C(=O)N2CCN(C(=O)COc3ccc4cc3CCc3cncc(c3)Nc3ncc(Cl)c(n3)N4)CC2)n[nH]1 [Example D266, 6-Chloro-12-(2-{4-[(5-methyl-1H-pyrazol-3-yl)carbonyl]piperazin-1-yl}-2-oxoethoxy)-2,4,8,18,22-pentaazatetracyclo[14.3.1.1(3,7).1(9,13)]docosa-1(20),3(22),4,6,9(21),10,12,16,18-nonaene tris(trifluoroacetate)] | > 400 | 21 | > 400 | 31 | –
19 | O=C(C[C@H]1CCCN(C(=O)Nc2ccccc2)C1)Nc1ccc2cc1CCc1cccc(c1)Nc1ncc(Cl)c(n1)N2 [Example D197, (3R)-3-(2-{[6-Chloro-2,4,8,22-tetraazatetracyclo[14.3.1.1(3,7).1(9,13)]docosa-1(20),3(22),4,6,9(21),10,12,16,18-nonaen-12-yl]amino}-2-oxoethyl)-N-phenylpiperidine-1-carboxamide trifluoroacetate] | 34 | 9 | 44 | 16 | –
